Source: the supplement of paper PMC10307832

Columns and labels:
Assay in all cases: relative viability (nuclei count vs DMSO), 5 days (fraction); higher = more cells survive
[1] = compound: CCN(CCO)CCCC(C)Nc1ccnc2cc(Cl)ccc12 [Hydroxychloroquine] + O=C(CCCCCCC(=O)Nc1ccccc1)NO [Vorinostat] (partner 1 µM)
Procedure, shortened: (§1)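 The day after seeding in 1536-well plates, lung cancer cell lines were treated by pin tool with a single drug, or with a fixed anchor-drug dose together with five library-drug doses (not always all listed) in √10 steps. After 5 days, a combined fix-and-stain solution (final 0.05% Triton X-100, 1% formaldehyde, 1 ug/ml Hoechst) was added. Nuclei counted on 4× images gave relative viability as treated counts over vehicle counts, reported as the median of duplicate plates.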

[2] = compound: CCN(CCO)CCCC(C)Nc1ccnc2cc(Cl)ccc12 [Hydroxychloroquine] + Nc1nc2[nH]cc(CCc3ccc(C(=O)N[C@@H](CCC(=O)O)C(=O)O)cc3)c2c(=O)[nH]1 [Pemetrexed] (partner 0.2 µM)
Procedure, shortened: as §1

[3] = compound: CCN(CCO)CCCC(C)Nc1ccnc2cc(Cl)ccc12 [Hydroxychloroquine] + Cc1nc(Nc2ncc(C(=O)Nc3c(C)cccc3Cl)s2)cc(N2CCN(CCO)CC2)n1 [Dasatinib] (partner 0.075 µM)
Procedure, shortened: as §1

[4] = compound: CCN(CCO)CCCC(C)Nc1ccnc2cc(Cl)ccc12 [Hydroxychloroquine] + CC(=O)c1c(C)c2cnc(Nc3ccc(N4CCNCC4)cn3)nc2n(C2CCCC2)c1=O [Palbociclib] (partner 0.5 µM)
Procedure, shortened: as §1

Cell Line	relative viability ([1]; first compound 0.5 µM)	relative viability ([1]; first compound 1.581 µM)	relative viability ([1]; first compound 5 µM)	relative viability ([1]; first compound 15.81 µM)	relative viability ([1]; first compound 50 µM)	relative viability ([2]; first compound 0.5 µM)	relative viability ([2]; first compound 1.581 µM)	relative viability ([2]; first compound 5 µM)	relative viability ([2]; first compound 15.81 µM)	relative viability ([2]; first compound 50 µM)	relative viability ([3]; first compound 0.5 µM)	relative viability ([3]; first compound 1.581 µM)	relative viability ([3]; first compound 5 µM)	relative viability ([3]; first compound 15.81 µM)	relative viability ([3]; first compound 50 µM)	relative viability ([4]; first compound 0.5 µM)	relative viability ([4]; first compound 1.581 µM)	relative viability ([4]; first compound 5 µM)	relative viability ([4]; first compound 15.81 µM)	relative viability ([4]; first compound 50 µM)
NCI-H2170	0.784	0.839	0.829	0.878	0.95	0.341	0.265	0.255	0.233	0.29	0.645	0.601	0.558	0.62	0.673	0.379	0.401	0.415	0.4	0.421
NCI-H2228	0.5	0.594	0.457	0.515	0.839	0.329	0.352	0.348	0.311	0.331	0.53	0.456	0.516	0.524	0.506	0.322	0.871	0.857	0.706	0.873
NCI-H2342	0.713	0.812	0.812	0.813	0.848	0.744	0.695	0.75	0.81	0.906	0.338	0.312	0.32	0.292	0.34	0.565	0.514	0.507	0.487	0.514
NCI-H2347	0.663	0.456	0.604	0.639	0.58	0.481	0.401	0.444	0.413	0.452	0.281	0.149	0.325	0.281	0.274	0.457	0.418	0.414	0.515	0.383
NCI-H2405	1.05	0.963	0.937	1.03	0.999	1.07	1.05	0.984	0.515	1.03	0.225	0.164	0.225	0.203	0.204	0.557	0.471	0.576	0.516	0.516
NCI-H3122	1.04	1.13	1.03	1.06	1.19	0.189	0.205	0.359	0.188	0.199	0.879	0.858	0.894	0.92	0.867	0.208	0.193	0.194	0.234	0.21
PC-3 [JPC-3]	0.918	0.847	0.652	0.737	0.782	1.09	1.2	1.01	0.323	0.842	0.94	0.873	0.971	1.21	1.16	0.538	0.576	0.59	0.561	0.511
PC-14	0.672	0.583	0.753	0.687	0.781	0.149	0.145	0.118	0.142	0.129	0.232	0.199	0.253	0.213	0.29	0.481	0.545	0.535	0.554	0.394
